The numbers were not newly measured in patent publication US20110092597A1, “METHOD FOR TREATING HERPES VIRUS INFECTION” (priority 2009, published 2011), which cites them from elsewhere.

Experiment in series [1]: not given
This is another data set of the same source.

Molecules are shown by their SMILES.

On to `Nc1nc2c(ncn2COCCO)c(=O)[nH]1` [acyclovir, acycloguanosine], for which the Solubility in water entry is “poorly soluble”. Also, the Bioavailability result in series [1] was “low”. With `O=C(O)Cc1ccccc1Nc1c(Cl)cccc1Cl` [Diclofenac, 2-(2,6-dichloro-anilino)-phenyl-acetic acid], the Solubility in water result is on record as “relatively low”.
